Experimental data from US10905680B2, “Methods of treatment for cholestatic and fibrotic diseases” (Genfit, priority 2016, dated 2021).
pIC50: −log10 of the molar value.

Key:
[1] = tested on: human primary hepatic stellate cells (hHSC); experiment: TGFβ1-induced expression of α-SMA protein in human HSC (ELISA); type: cell-based; conditions: Homo sapiens, 1 h preincubation, TGFβ1 1 ng/ml, 48 hours, read-out: IC50 (level of α-SMA in TGFβ-induced HSCs)
Method: Serum-deprived HSC were preincubated for 1 hour with NTZ (A) or TZ (B) before the activation with the profibrogenic cytokine TGFβ1 (1 ng/ml). After 48 hours of incubation, the expression of α-SMA was measured by ELISA. The obtained values were transformed into percentage inhibition over TGFβ1 control. Data are presented as mean (triplicates)±standard deviation (SD). Statistical analyses were performed by one-way ANOVA followed by Bonferroni post-hoc tests, using Sigma Plot 11.0 software. [*: p<0.05; **: p<0.01; ***: p<0.001 (comparison versus TGFβ1 1 ng/mL group)]. The curve fitting and the calculation of half maximal inhibitory concentration (IC50) were performed with XLFit software 5.3.1.3. The human primary hepatic stellate cells (hHSC) (Innoprot) were cultured in STeCM medium (ScienCell cat #5301) that was supplemented with 2% fetal bovine serum (FBS, ScienCell cat #0010), 1% penicillin/streptomycin (ScienCell cat #0503) and stellate cell growth supplement (SteCGS; ScienCell cat #5352). Cell culture flasks were coated with Poly-L Lysine (Sigma cat # P4707) for a better adherence. The human primary hepatic stellate cells (hHSC) (Innoprot) were cultured under standard conditions, as described above. The cells were subsequently plated at a density of 7×10^4 cells/well into 24-well plates for gene expression studies, and at a density of 2×10^4 cells/well into 96-well plates for the measure of α-SMA by ELISA. The next day, cell culture medium was removed, and cells were washed with PBS (Invitrogen cat #14190). hHSC were deprived for 24 hours in serum-free and SteCGS-free medium. For the treatments with NTZ or TZ, the serum-deprived hHSC were preincubated for 1 hour with the compounds followed by the addition of the profibrogenic stimuli TGFβ1 (PeproTech cat #100-21, 1 ng/mL) in serum-free and SteCGS-free medium for an additional 24 or 48 hour period (the timepoint is indicated in the figure legends). […] The level of α-SMA was measured using a Sandwich ELISA. […]

HSC = experiment: Toxicity assays in HSC; type: cell-based, human; conditions: data not shown

CC(=O)Oc1ccccc1C(=O)Nc1ncc([N+](=O)[O-])s1 [NTZ, [2-[(5-nitro-1,3-thiazol-2-yl)carbamoyl]phenyl]ethanoate, reference compound]
pIC50 [1]: 5.52 to 7.00
toxicity or apoptosis of HSC (HSC): not due to toxicity or apoptosis
